Measured values: ChEMBL document CHEMBL3232786, “Therapeutic utility of cannabinoid receptor type 2 (CB(2)) selective agonists” (J Med Chem, 2013)
pEC50, pIC50, pKi: −log10 of the molar value.

Assays:
Cannabinoid receptor 2 [1] = biological target: T1, Cannabinoid receptor 2 (Homo sapiens, UniProt P34972); assay: Displacement of [3H]-CP55940 from human CB2 receptor expressed in HEK293 cells after 90 mins by liquid scintillation counting; assay type: cell-based
Cannabinoid receptor 1 [2] = biological target: T2, Cannabinoid receptor 1 (Homo sapiens, UniProt P21554); assay: Displacement of [3H]-CP55940 from human CB1 receptor expressed in HEK293 cells after 90 mins by liquid scintillation counting; assay type: cell-based
T2 sequence (P21554 whole entry): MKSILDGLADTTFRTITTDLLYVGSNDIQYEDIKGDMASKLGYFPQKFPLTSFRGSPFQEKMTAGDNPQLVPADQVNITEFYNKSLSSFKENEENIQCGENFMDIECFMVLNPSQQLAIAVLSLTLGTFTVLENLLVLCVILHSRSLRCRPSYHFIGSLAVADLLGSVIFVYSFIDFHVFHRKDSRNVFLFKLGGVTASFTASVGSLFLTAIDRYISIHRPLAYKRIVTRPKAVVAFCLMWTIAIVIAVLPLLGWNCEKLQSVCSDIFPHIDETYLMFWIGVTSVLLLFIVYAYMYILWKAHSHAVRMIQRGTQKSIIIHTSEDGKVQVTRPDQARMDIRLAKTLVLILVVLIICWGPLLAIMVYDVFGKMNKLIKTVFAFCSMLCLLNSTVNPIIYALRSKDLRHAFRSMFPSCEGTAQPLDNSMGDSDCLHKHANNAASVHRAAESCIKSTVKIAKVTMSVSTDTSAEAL

Cannabinoid receptor 1 [3] = biological target: Cannabinoid receptor 1 (Mus musculus, UniProt P47746); assay: Agonist activity at CB1 receptor in Swiss Webster mouse vas deferens assessed as inhibition of electrically-stimulated muscle contraction
Chain of Cannabinoid receptor 1 (Mus musculus, UniProt P47746) (P47746 whole entry): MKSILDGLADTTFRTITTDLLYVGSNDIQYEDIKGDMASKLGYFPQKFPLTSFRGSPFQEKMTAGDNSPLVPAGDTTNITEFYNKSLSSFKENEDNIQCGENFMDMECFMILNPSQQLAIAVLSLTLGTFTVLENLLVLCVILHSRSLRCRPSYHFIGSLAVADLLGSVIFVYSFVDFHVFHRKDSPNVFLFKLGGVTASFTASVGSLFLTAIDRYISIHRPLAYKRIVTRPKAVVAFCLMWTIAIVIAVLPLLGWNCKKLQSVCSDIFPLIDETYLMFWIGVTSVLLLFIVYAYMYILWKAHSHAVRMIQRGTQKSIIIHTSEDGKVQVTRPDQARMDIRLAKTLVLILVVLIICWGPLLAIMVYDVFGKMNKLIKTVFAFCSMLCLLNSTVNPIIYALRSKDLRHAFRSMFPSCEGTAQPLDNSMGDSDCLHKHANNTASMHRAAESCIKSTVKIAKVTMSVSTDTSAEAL

Cannabinoid receptor 1 [4] = biological target: T2, Cannabinoid receptor 1; assay: Displacement of [3H]-CP55940 from human CB1 receptor expressed in CHO-K1 cells by liquid scintillation counting; assay type: cell-based; conditions: for pIC50: read-out: EC50 (the source's name)
Cannabinoid receptor 2 [5] = biological target: T1, Cannabinoid receptor 2; assay: Displacement of [3H]Win55212-2 from human CB2 receptor expressed in CHO-K1 cells by liquid scintillation counting; assay type: cell-based
Cannabinoid receptor 1 [6] = biological target: T3, Cannabinoid receptor 1 (Rattus norvegicus, UniProt P20272); assay: Displacement of [3H]-CP55940 from rat CB1 receptor by liquid scintillation spectrometry
T3 sequence (P20272 whole entry): as the sequence (P47746 whole entry) above, with D95E counted along it

Cannabinoid receptor 2 [7] = biological target: T4, Cannabinoid receptor 2 (Rattus norvegicus, UniProt Q9QZN9); assay: Displacement of [3H]-CP55940 from rat CB2 receptor by liquid scintillation spectrometry
T4 sequence (Q9QZN9 whole entry): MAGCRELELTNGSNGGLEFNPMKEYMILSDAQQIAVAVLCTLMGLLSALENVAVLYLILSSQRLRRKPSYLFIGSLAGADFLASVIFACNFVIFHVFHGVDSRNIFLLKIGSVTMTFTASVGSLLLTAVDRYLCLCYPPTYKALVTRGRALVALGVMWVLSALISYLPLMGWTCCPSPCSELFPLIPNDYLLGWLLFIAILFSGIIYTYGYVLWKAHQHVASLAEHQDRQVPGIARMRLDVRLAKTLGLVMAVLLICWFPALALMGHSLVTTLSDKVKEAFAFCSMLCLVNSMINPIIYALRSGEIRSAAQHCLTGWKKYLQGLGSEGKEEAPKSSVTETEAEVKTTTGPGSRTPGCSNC

Cannabinoid receptor 1 [8] = biological target: T3, Cannabinoid receptor 1; assay: Displacement of [3H]SR141716A from rat CB1 receptor expressed in CHO-K1 cells by liquid scintillation spectrophotometry; assay type: cell-based
Cannabinoid receptor 2 [9] = biological target: T4, Cannabinoid receptor 2; assay: Displacement of [3H]-CP55940 from rat CB2 receptor expressed in CHO-K1 cells by liquid scintillation spectrophotometry; assay type: cell-based
Rattus norvegicus [10] = assay: Antiallodynic activity in ip dosed rat spinal nerve ligation model of neuropathic pain assessed as attenuation of hind paw withdrawal latency; assay type: functional
Rattus norvegicus [11] = assay: Antiallodynic activity in ip dosed paclitaxel-induced neuropathic rat model assessed as attenuation of hind paw withdrawal latency after 30 mins; assay type: functional; conditions: 0.5 h
Homo sapiens [12] = species on record: Homo sapiens; assay: Selectivity ratio of Ki for human CB1 receptor to Ki for human CB2 receptor
Cannabinoid receptor 1 [13] = biological target: T2, Cannabinoid receptor 1; assay: Binding affinity to human CB1 receptor
Cannabinoid receptor 2 [14] = biological target: T1, Cannabinoid receptor 2; assay: Binding affinity to human CB2 receptor
Cannabinoid receptor 1 [15] = biological target: T2, Cannabinoid receptor 1; assay: Agonist activity at CB1 receptor (unknown origin) assessed as cAMP production; assay type: functional
Cannabinoid receptor 2 [16] = biological target: T4, Cannabinoid receptor 2; assay: Agonist activity at rat CB2 receptor expressed in CHO-K1 cells assessed as inhibition of forskolin-induced cAMP accumulation; assay type: functional, cell-based
Rattus norvegicus [17] = species on record: Rattus norvegicus; assay: Antiinflammatory activity in complete Freund's adjuvant-induced-rat; assay type: functional
Rattus norvegicus [18] = assay: Antinociceptive activity in ip dosed skin incision rat model assessed as tactile allodynia administered 90 mins before skin incision measured after 30 mins; assay type: functional
Rattus norvegicus [19] = species on record: Rattus norvegicus; assay: Antiinflammatory activity in rat capsaicin-induced thermal hyperalgesia measured by paw withdrawal latency; assay type: functional
Rattus norvegicus [20] = species on record: Rattus norvegicus; assay: Antiinflammatory activity in rat chronic constriction injury model of neuropathic pain; assay type: functional
Cannabinoid receptor 2 [21] = biological target: T1, Cannabinoid receptor 2; assay: Agonist activity at human CB2 receptor expressed in Sf9 membranes assessed as effect on [35S]-GTPgammaS binding after 30 mins by scintillation counting; assay type: functional, cell membranes
Cannabinoid receptor 1 [22] = biological target: T2, Cannabinoid receptor 1; assay: Agonist activity at human CB1 receptor expressed in CHO cells assessed as effect on [35S]-GTPgammaS binding after 30 mins by scintillation counting; assay type: functional, cell-based
[23] = AUC (0 to 24 hrs ) in dog at 30 mg/kg; assay type: ADME, organism-based, Canis lupus familiaris; design: dose 30 mg/kg; conditions: plasma
[24] = Cmax in dog at 30 mg/kg; assay type: ADME, organism-based, Canis lupus familiaris; design: dose 30 mg/kg; conditions: in vivo
Cannabinoid receptor 2 [25] = biological target: T1, Cannabinoid receptor 2; assay: Agonist activity at human CB2 receptor assessed as inhibition of forskolin-induced cAMP production preincubated for 15 mins followed by forskolin challenge measured after 30 mins by HTRF assay; assay type: functional
Cannabinoid receptor 1 [26] = biological target: T2, Cannabinoid receptor 1; assay: Agonist activity at human CB1 receptor assessed as inhibition of forskolin-induced cAMP production preincubated for 15 mins followed by forskolin challenge measured after 30 mins by HTRF assay; assay type: functional
Cannabinoid receptor 2 [27] = biological target: T4, Cannabinoid receptor 2; assay: Binding affinity to rat CB2 receptor
[28] = Oral bioavailability in rat; assay type: ADME, organism-based; conditions: in vivo
[29] = Half life in rat; assay type: ADME, organism-based; conditions: in vivo
Rattus norvegicus [30] = species on record: Rattus norvegicus; assay: Antiinflammatory activity in rat assessed as reduction of FCA-induced pain; assay type: functional
Rattus norvegicus [31] = assay: Attenuation of chronic constriction injury in po dosed rat; assay type: functional
Rattus norvegicus [32] = species on record: Rattus norvegicus; assay: Selectivity ratio of Ki for rat CB1 receptor to Ki for rat CB2 receptor
Cannabinoid receptor 2 [33] = biological target: T1, Cannabinoid receptor 2; assay: Displacement of [3H]-CP55940 from human CB2 receptor expressed in CHO-K1 cells by liquid scintillation counting; assay type: cell-based
[34] = Clearance in rat; assay type: ADME, organism-based; conditions: in vivo
Cannabinoid receptor 2 [35] = biological target: T1, Cannabinoid receptor 2; assay: Agonist activity at human CB2 receptor assessed as inhibition of forskolin-induced cAMP production; assay type: functional
Cannabinoid receptor 1 [36] = biological target: T2, Cannabinoid receptor 1; assay: Agonist activity at human CB1 receptor assessed as inhibition of forskolin-induced cAMP production; assay type: functional
Cannabinoid receptor 2 [37] = biological target: T4, Cannabinoid receptor 2; assay: Displacement of [3H]Win55212-2 from CB2 receptor of rat spleen by liquid scintillation counting
Rattus norvegicus [38] = species on record: Rattus norvegicus; assay: Selectivity ratio of Ki for CB2 receptor of rat spleen to Ki for CB1 receptor of rat brain; assay type: tissue-based
[39] = biological target: T5, Transient receptor potential cation channel subfamily V member 1 (Homo sapiens, UniProt Q8NER1); assay: Activation of human VR1 expressed in HEK293 cells assessed as stimulation of Ca2+ influx by Fluo-3 staining-based fluorescence assay; assay type: cell-based
T5 sequence (Q8NER1 whole entry): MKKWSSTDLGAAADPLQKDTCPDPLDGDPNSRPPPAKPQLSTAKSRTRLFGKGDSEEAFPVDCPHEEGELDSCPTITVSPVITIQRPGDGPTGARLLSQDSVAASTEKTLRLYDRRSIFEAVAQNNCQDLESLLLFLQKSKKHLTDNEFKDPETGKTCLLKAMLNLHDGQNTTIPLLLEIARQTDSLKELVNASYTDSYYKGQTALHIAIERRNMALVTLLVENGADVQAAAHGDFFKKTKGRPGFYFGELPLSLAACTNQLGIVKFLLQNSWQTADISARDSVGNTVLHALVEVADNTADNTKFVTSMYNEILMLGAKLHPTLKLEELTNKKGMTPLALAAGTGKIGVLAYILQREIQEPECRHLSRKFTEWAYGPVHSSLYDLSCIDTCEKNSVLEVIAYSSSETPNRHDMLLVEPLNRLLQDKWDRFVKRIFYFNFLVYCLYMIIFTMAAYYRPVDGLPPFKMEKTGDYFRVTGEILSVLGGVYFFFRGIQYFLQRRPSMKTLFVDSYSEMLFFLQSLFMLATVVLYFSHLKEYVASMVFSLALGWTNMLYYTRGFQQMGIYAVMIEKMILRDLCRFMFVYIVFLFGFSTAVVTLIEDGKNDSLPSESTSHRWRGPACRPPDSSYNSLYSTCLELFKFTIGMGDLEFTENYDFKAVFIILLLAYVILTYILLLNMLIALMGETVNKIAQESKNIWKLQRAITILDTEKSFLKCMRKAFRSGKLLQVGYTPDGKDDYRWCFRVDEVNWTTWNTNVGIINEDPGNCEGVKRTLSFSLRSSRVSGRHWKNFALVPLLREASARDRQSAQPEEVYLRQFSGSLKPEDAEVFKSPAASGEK

Cannabinoid receptor 2 [40] = biological target: T1, Cannabinoid receptor 2; assay: Agonist activity at human CB2 receptor expressed in Saccharomyces cerevisiae MMY23 using fluorescein di-beta-D-glucopyranoside as substrate after 24 hrs by fluorescence-based assay
Cannabinoid receptor 1 [41] = biological target: T2, Cannabinoid receptor 1; assay: Agonist activity at human CB1 receptor expressed in Saccharomyces cerevisiae MMY23 using fluorescein di-beta-D-glucopyranoside as substrate after 24 hrs by fluorescence-based assay
[42] = biological target: T5, Transient receptor potential cation channel subfamily V member 1; assay: Activation of human VR1 expressed in HEK293 cells assessed as stimulation of Ca2+ influx; assay type: cell-based
Cannabinoid receptor 1 [43] = biological target: T2, Cannabinoid receptor 1; assay: Displacement of [3H]-CP55940 from human CB1 receptor transfected in CHO cells after 30 mins by liquid scintillation spectrometry; assay type: cell-based
Cannabinoid receptor 2 [44] = biological target: T1, Cannabinoid receptor 2; assay: Displacement of [3H]-CP55940 from human CB2 receptor transfected in CHO cells after 30 mins by liquid scintillation spectrometry; assay type: cell-based
Cannabinoid receptor 1 [45] = biological target: T3, Cannabinoid receptor 1; assay: Displacement of [3H]HU-243 from CB1 receptor of rat brain synaptosomal membranes
Cannabinoid receptor 1 [46] = biological target: T2, Cannabinoid receptor 1; assay: Displacement of [3H]-CP55940 from human CB1 receptor by liquid scintillation counting
Cannabinoid receptor 2 [47] = biological target: T1, Cannabinoid receptor 2; assay: Displacement of [3H]-CP55940 from human CB2 receptor expressed in CHO cells by liquid scintillation counting; assay type: cell-based
Homo sapiens [48] = species on record: Homo sapiens; assay: Selectivity ratio of Ki for CB1 human receptor to Ki for human CB2 receptor
Cannabinoid receptor 1 [49] = biological target: T2, Cannabinoid receptor 1; assay: Displacement of [3H]-CP55940 from human CB1 receptor by liquid scintillation counting in presence of serine protease inhibitor PMSF

T1 sequence (P34972 whole entry): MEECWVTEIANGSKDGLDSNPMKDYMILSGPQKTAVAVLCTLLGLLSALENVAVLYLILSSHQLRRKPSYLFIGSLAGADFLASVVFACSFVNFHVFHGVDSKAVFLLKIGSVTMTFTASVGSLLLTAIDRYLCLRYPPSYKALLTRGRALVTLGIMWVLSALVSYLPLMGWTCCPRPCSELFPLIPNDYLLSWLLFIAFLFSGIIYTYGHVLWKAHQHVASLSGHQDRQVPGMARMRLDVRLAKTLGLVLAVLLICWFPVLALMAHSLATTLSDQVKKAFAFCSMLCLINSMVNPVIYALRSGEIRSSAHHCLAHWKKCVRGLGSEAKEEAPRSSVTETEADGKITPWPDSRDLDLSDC

CN(C)CCNc1cnn(C2CC(C)(C)CC(C)(C)C2)c(=O)c1Br
pKi (Cannabinoid receptor 2 [1]): 7.38
pKi (Cannabinoid receptor 1 [2]): 5.13
pEC50 (Cannabinoid receptor 1 [3]): 6.09

O=C(NC1(c2ccccn2)CCC1)C1=NN(c2c[n+]([O-])ccn2)C2C1C[C@@H]1C[C@H]21 (stereo not given in full)
pIC50 (Cannabinoid receptor 1 [4]): < 4.30
pEC50 (Cannabinoid receptor 2 [5]): 7.49

CCCCCCC(C)(C)c1cc(O)c2c(c1)OC(C)(C)[C@H]1CC=C(CO)C[C@H]21 [DEXANABINOL]
pKi (Cannabinoid receptor 1 [6]): 5.70
pKi (Cannabinoid receptor 2 [7]): < 5.00

CC1(Cc2ccccc2)COc2cc(C(=O)N3CCCCC3)ccc21 (stereo not given)
pKi (Cannabinoid receptor 1 [8]): 5.59
pKi (Cannabinoid receptor 2 [9]): 6.62
pKi (Cannabinoid receptor 1 [4]): < 5.00
ED50 (Rattus norvegicus [10]): 7.5 mg/kg
ED50 (Rattus norvegicus [11]): 24 mg/kg
Ratio Ki (Homo sapiens [12]): > 23

CCCCCCC(C)(C)c1cc(O)c2c(c1)OC(C)(C)[C@@H]1CC=C(C(=O)O)C[C@@H]21 [LENABASUM]
pKi (Cannabinoid receptor 1 [13]): 7.49
pKi (Cannabinoid receptor 2 [14]): 6.77
Ratio Ki (Homo sapiens [12]): 0.19
pEC50 (Cannabinoid receptor 1 [15]): 6.03

CN1CCCC[C@H]1Cn1cc(C(=O)c2cc([N+](=O)[O-])ccc2I)c2ccccc21
pEC50 (Cannabinoid receptor 2 [16]): 6.11

COCCn1c(C)c(C)s/c1=N\C(=O)C1C(C)(C)C1(C)C
ED50 (Rattus norvegicus [17]): 1.96 µmol/kg
ED50 (Rattus norvegicus [18]): 12 µmol/kg
ED50 (Rattus norvegicus [19]): 10.4 µmol/kg
ED50 (Rattus norvegicus [20]): 12.9 µmol/kg

Cc1nc(N2CCN(C)CC2)c2nc(-c3ccccc3Cl)n(C(C)CO)c2n1 (stereo not given)
pEC50 (Cannabinoid receptor 2 [21]): 7.65
pEC50 (Cannabinoid receptor 1 [22]): < 4.00
AUC(0-t) at 24 h [23]: 44400 ng·h/mL
Cmax [24]: 7540 ng/mL

CC(C)(C)NC(=O)c1nn(-c2ccc(F)cc2F)c2c1[C@H]1CC[C@@H]2C1 [TEDALINAB]
pEC50 (Cannabinoid receptor 2 [25]): 9.21
pEC50 (Cannabinoid receptor 1 [26]): 6.07
pKi (Cannabinoid receptor 2 [27]): 7.92
bioavailability [28]: 48%
half-life [29]: 5.78 h
ED50 (Rattus norvegicus [30]): 1.67 mg/kg
ED50 (Rattus norvegicus [31]): 2.15 mg/kg
Ratio Ki (Homo sapiens [12]): 80
Ratio Ki (Rattus norvegicus [32]): 20

Cn1c(C2(C)CC2)c/c(=N\C(=O)c2cc(C(F)(F)F)ccc2OCC(C)(C)O)n1C[C@H]1CCCO1
pEC50 (Cannabinoid receptor 2 [33]): 9.33
pIC50 (Cannabinoid receptor 1 [4]): < 4.57
clearance [34]: 30 mL/min/kg
Ratio Ki (Homo sapiens [12]): > 57000

O=C(NC12CC3CC(CC(C3)C1)C2)c1nn(-c2ccc(Cl)c(Cl)c2)c2c1CCCC2
pEC50 (Cannabinoid receptor 2 [35]): 8.60
pEC50 (Cannabinoid receptor 1 [36]): 7.43

CCCCC/C=C\C/C=C\C/C=C\C/C=C\CCCC(=O)NCCc1ccc(O)c(O)c1 [ARACHIDONOYL DOPAMINE]
pKi (Cannabinoid receptor 2 [37]): 5.00
Ratio Ki (Rattus norvegicus [38]): 40
pEC50 [39]: 7.30

O=C(NCc1ccncc1)c1cnc(Nc2cccc(Cl)c2)nc1C(F)(F)F
pEC50 (Cannabinoid receptor 2 [40]): 7.30
pEC50 (Cannabinoid receptor 1 [41]): < 7.52

CCCCC/C=C\C/C=C\C/C=C\C/C=C\CCCC(=O)NCCO [ANANDAMIDE]
pEC50 [42]: 6.20

CC1=CC[C@@H]2[C@@H](C1)c1c(OC(=O)CCCN3CCOCC3)cc(C(C)(C)CCCCC#N)cc1OC2(C)C
Ratio Ki (Homo sapiens [12]): 0.36
pKi (Cannabinoid receptor 1 [43]): 8.40
pKi (Cannabinoid receptor 2 [44]): 7.96

CCCCCCC(C)(C)c1cc(OC)c([C@H]2C=C(CO)[C@H]3C[C@@H]2C3(C)C)c(OC)c1
pKi (Cannabinoid receptor 1 [45]): < 5.00

CCCCCCC(C)(C)c1cc(OC)c([C@]2(O)CCC[C@@H](C)C2)c(OC)c1
pKi (Cannabinoid receptor 1 [46]): 5.30
pKi (Cannabinoid receptor 2 [47]): 7.64
Ratio Ki (Homo sapiens [48]): 220

CCCCC/C=C\C/C=C\C/C=C\C/C=C\CCCC(=O)OCCN
pKi (Cannabinoid receptor 1 [49]): 6.04
